The subject of test [1] is MC3T3-E1 cells. Description: ALP activity determination in MC3T3-E1 cells. The class given is cell-based, mouse. On the procedure: Seven days after differentiation, the culture supernatant was removed from each plate and the cells were fixed with an acetone/ethanol solution. The ALP activity was determined using p-nitrophenyl phosphate as a substrate. Specifically, a carbonate buffer (5 mM MgCl2, 50 mM NaHCO3) containing p-nitrophenyl phosphate (Nacalai) (1 mg/mL) was added to each well (100 μL/well), followed by incubation at 37° C. Then, the OD value at 405 nm was determined with the use of a microplate reader (BMG Labtech) for each well.
Cells mixed with 10% FBS+αMEM (GIBCO) were seeded on a 96-well plate (8×10^3 cells/well) and a 48-well plate (2×10^4 cells/well). The culture supernatant of each plate was replaced with 10% FBS+αMEM containing 5 mM β glycerophosphoric acid (SIGMA)+10 μg/mL sodium ascorbate (SIGMA) 48 hours later. Then, the medium was replaced with new medium every 3 or 4 days. As a control, MC3T3-E1 was cultured with the use of 10% FBS+αMEM as a maintenance medium. Upon medium replacement, a peptide was added to each plate at a concentration of 300 μM, ALP activity determination and alizarin red S staining were carried out by the method described in Example 1 on Days 7 and 21.
MC3T3-E1 cells mixed with 10% FBS+αMEM (SIGMA) were seeded on a 96-well plate (1.5×10^4 cells/well). After 12 hours, the medium was removed therefrom and a medium containing an SB203580 p38 inhibitor (Calbiochem) was added thereto. […] Then, ALP activity determination was carried out by the method described in Example 1.
Similarly, rhDkk-1 (R&D) was added as a Wnt antagonist at concentrations of 0.25, 0.5, and 1 μg/ml. After 1 hour, 200 μM peptide D was added thereto, followed by culture for 5 days. Then, ALP activity determination was carried out by the method described in Example 1.
In addition, as described above, BMPR-IA (R&D) was added as a BMP antagonist at concentrations of 0.25 and 1 μg/ml. […] Then, ALP activity determination was carried out by the method described in Example 1. […] Based on the above results, it was likely that actions of peptide D depend on BMP induction or BMP produced constantly and spontaneously by cells.
MC3T3-E1 cells mixed with 10% FBS+α MEM (SIGMA) were seeded on a 96-well plate (1.5×10^4 cells/well).
Further, peptide D and peptide E were compared with each other in terms of ALP activity enhancement actions in MC3T3-E1 cells. Peptide D and peptide E were used at concentrations of 25, 50, 100, and 200 μM for culture under the conditions described in Example 14, followed by determination of ALP activity by the method described in Example 1.
MC3T3-E1 cells (mouse osteoblast precursor cells) mixed with 10% FBS+αMEM (SIGMA) were seeded on a 96-well plate (2×10^4 cells/well). After cell adhesion, the medium was removed therefrom, followed by ALP activity determination in the cases involving the addition of 50 and 150 μM peptide D (acetate and hydrochloride). […] On Day 5 after the addition of the individual factors, the culture supernatant was removed, followed by ALP activity determination by the method described in Example 1.
MC3T3-E1 cells (mouse osteoblast precursor cells) mixed with 10% FBS+αMEM (SIGMA) were seeded on a 96-well plate (2×10^4 cells/well). After cell adhesion had taken place, the medium was removed therefrom, followed by determination of ALP activity in the cases involving the mixing of 5 ng/mLBMP-2 (produced by CHO cells) with 6.25, 12.5, 25, 50, and 100 μM synthetic peptide D. On Day 5 after the addition of the individual factors, the culture supernatant was removed, followed by ALP activity determination by the method described in Example 1.
At the end of the experiment, synergistic effects of synthetic peptide D in the form of acetate and BMP-4 (R&D) were also examined. MC3T3-E1 cells (mouse osteoblast precursor cells) mixed with 10% FBS+αMEM (SIGMA) were seeded on a 96-well plate (2×10^4 cells/well). […]

The test system of test [2] is MC3T3-E1 cells. Description: RT-PCR verification of gene expression in MC3T3-E1 cells. The class given is cell-based, mouse.

Bridges are numbered along the chain shown (N, C = ends). Where no end group is shown, it is not given here.

Regarding “peptide D: cyclic peptide of SEQ ID NO: 7, 9 amino acids, two cysteine residues bound via a disulfide bond; binds to RANKL (YCWSQYLCY; disulfide 2-8 (inferred))”, the ALP activity result in test [1] (150 μM peptide D combined with 30 ng/mL BMP-2) was “additive actions of ALP activity enhancement”; in test [1] (300 μM, Day 7 after differentiation), “significantly increased”; in test [1] (25, 50, 100 and 200 μM, 5 days) it was “enhance ALP activity in a concentration-dependent manner”. Also, the “ALP activity, peptide D compared with peptide E” value in test [1] (50 and 100 μM) is recorded as “significant enhancement actions compared with peptide E”. In test [2] (200 μM peptide D (acetate)), the “gene expression levels of IRS1, PDGFRβ, PDGFc, FGFR2, FGF2, CTGF, BMP-4 and IGF-2 (RT-PCR)” value is “significant increases in the gene expression levels”. For the same substance, the “gene expression levels of ALP, Col1 and OC (RT-PCR)” value in test [2] (200 μM peptide D (acetate) or 150 ng/ml BMP-2) is given as “significant increases in the gene expression levels”.

Values taken from patent publication US20100260680A1, “NOVEL BONE MASS INCREASING AGENT” (ORIENTAL YEAST CO., LTD., priority 2007, published 2010).
